What was measured:
[1] = tested on: RBL-2H3; experiment: Influence of VGS mutations on surface expression of human HTR1B in RBL-2H3 cells, flow cytometry after magnetic bead separation (Example 4); assay type: cell-based; details: for Median fluorescence intensity of positive cells, x-median (range) / Percentage of positive cells after selection (range): human HTR1B, MoMLV5′LTR promoter, RBL-2H3, triplicate; for Percentage of positive cells after selection (range): magnetic bead separated
Source text: Vectors were developed for stable expression of human HTR1B without the methionine at position 1 in mammalian cells under the control of Moloney Leukaemia virus 5′-LTR promoter (MoMLV5′LTR, SEQ ID NO: 6). All vectors had the neomycin resistance gene for selection of stable eukaryotic cells and mouse immunoglobulin kappa signal peptide followed by a c-myc tag (EQKLISEEDLN peptide). Vectors included no VGS, native VGS or two VGS mutants (VGS mutant 1 and VGS mutant 2). This experiment was designed to test if serine and threonine at VGS which represent potential […] glycosylation sites are the molecular determinants of improved surface expression. In VGS mutant 1 all 5 serine and threonine were mutated to alanine while in VGS mutant 2 all serine were mutated and 2 threonines were still present.
Each vector was individually electroporated by triplicate using a microporator (Digital Bio Technology, South Korea) into RBL-2H3 and after 48 hours neomycin at 500 ug/mL was added to culture for selection. After selection for about 2 weeks cells were analysed by flow cytometry (Guava Technologies, USA) with anti-cmyc tag antibody (anti-cmyc-FITC, clone 9E10, Sigma-Aldrich, USA) for surface expression. Selected cells were separated by using magnetic beads from Miltenyi and anti-cmyc tag. Results were expressed as percentage of positive cells after subtraction of values from non transfected RBL-2H3 cells incubated with the same anti-cmyc tag antibody. For positive cells median fluorescence intensity (x-median) was taken as a marker of surface receptor density on the surface of positive cells.

[2] = tested on: BW5147.G.1.4.ovar.1; experiment: Surface expression of HT1BR in stably transfected BW5147 cells, flow cytometry with anti-cmyc tag antibody (Example 2); assay type: cell-based, mouse; details: MoMLV5′LTR promoter
Source text: (§1) Vectors were developed for stable expression of GPCRs in hematopoietic cells without professional regulated exocytosis under the control of Moloney Leukaemia virus 5′-LTR (MoMLV5′LTR, SEQ ID NO: 6), a good promoter for expression of GPCRs tested previously for more than 20 different GPCRs. The vector had neomycin resistance gene for selection of stable eukaryotic cells, mouse immunoglobulin kappa signal peptide followed by a c-myc tag (EQKLISEEDLN peptide) and the entire HT1BR GPCR without the methionine at position 1. This GPCR is a prototype of a receptor that it is difficult to be expressed into RBL-2H3. Two vectors were developed: one with a heterologous viral-GPCR derived sequence (VGS) and one without VGS. Each vector was individually electroporated using a microporator (Digital Bio Technology, South Korea) into WEHI-3B, a mouse myelomonocytic leukaemia cell line (DSMZ, ACC26) and into BW5147.G.1.4.ovar.1, a mouse lymphoma T cell line (HPA cultures, Cat. No. 88100507) and after 48 hours neomycin was added to culture for selection. After selection for about 2 weeks cells were analysed by flow cytometry (Guava Technologies, USA) with anti-cmyc tag antibody (anti-cmyc-FITC, clone 9E10, Sigma-Aldrich, USA) for surface expression.

[3] = tested on: HEK293 cells; experiment: Surface expression of human HTR1B in stably transfected HEK293 cells, flow cytometry with anti-cmyc tag antibody (Example 3); assay type: cell-based; details: HEK293, MoMLV5′LTR promoter
Source text: Vectors were developed for stable expression of GPCRs in mammalian cells under the control of the following promoters: Moloney Leukaemia virus 5′-LTR (MoMLV5′LTR, SEQ ID NO: 6), human phosphoglycerate kinase promoter (SEQ ID NO: 4) and human elongation factor 1 alpha promoter (hEF1alpha, SEQ ID NO: 3). All vectors had the neomycin resistance gene for selection of stable eukaryotic cells, mouse immunoglobulin kappa signal peptide followed by a c-myc tag (EQKLISEEDLN peptide), a sequence derived from a heterologous viral-GPCR (VGS, SEQ ID NO: 2) and the entire human HTR1B without the methionine at position 1. Such heterologous viral-GPCR derived sequence was included to test if surface expression is improved by certain heterologous viral-GPCR derived sequences in non-hematopoietic cell lines. […] After selection for about 2 weeks cells were analysed by flow cytometry (Guava Technologies, USA) with anti-cmyc tag antibody (anti-cmyc-FITC, clone 9E10, Sigma-Aldrich, USA) for surface expression. Results were expressed as percentage of positive cells after subtraction of values from non transfected HEK293 cells incubated with the same anti-cmyc tag antibody. […] For positive cells mean fluorescence intensity (MFI) was taken as a marker of surface receptor density on the surface of positive cells.

[4] = tested on: WEHI-3B; experiment: Surface expression of HT1BR in stably transfected WEHI-3B cells, flow cytometry with anti-cmyc tag antibody (Example 2); assay type: cell-based, mouse
Source text: as §1

## LAAMAPGAAVGA [VGS mutant 1, all 5 serine and threonine mutated to alanine]
[1]
  Median fluorescence intensity of positive cells, x-median (range): 45.6 (44.9-46.2)
  Percentage of positive cells after selection (range): 49.1 (47.5-50.7) %

## LAAMAPGATVGT [VGS mutant 2, all serine mutated, 2 threonines still present]
[1]; RBL-2H3, MoMLV5′LTR promoter
  Reduction of median fluorescence intensity versus native VGS: 1.43 fold
[1]
  Percentage of positive cells after selection (range): 49.2 (48.2-50.2) %

## LSTMAPGSTVGT [VGS native]
[1]; RBL-2H3, MoMLV5′LTR promoter
  Increase of median fluorescence intensity of positive cells versus no VGS: 2.6 fold
[1]
  Median fluorescence intensity of positive cells, x-median (range): 89.3 (87.7-90.9)
  Percentage of positive cells after selection (range): 50.2 (49.2-51.1) %
[1]; listed as native VGS
  Percentage of positive cells after selection (range): 50%
  Median fluorescence intensity of positive cells, x-median (range): 89.3

## VGS: Heterologous viral-GPCR derived sequence (VGS, SEQ ID NO: 2) added at the amino terminus of the GPCR (CTGAGCACAATGGCCCCAGGCTCCACCGTGGGAACA; expressed or natural sequence)
[2]
  Ratio of percentage of cells with surface expression with VGS versus without: about 15 times
[3]
  Improvement of percentage of positive cells by inclusion of VGS: 2.7 fold
[4]; HT1BR, WEHI 3B cells, about 2 weeks neomycin selection
  Percentage of positive cells after selection: about 50%
[4]; WEHI-3B cells, MoMLV5′LTR promoter
  Ratio of percentage of positive cells with VGS versus without: 1.6 times

— patent US9499584B2, “GPCR with improved cell surface expression” (CANVAX BIOTECH S.L, priority 2012, dated 2016)
